Assay results reported in patent publication US10821115B2, “Compounds that inhibit Mcl-1 protein” (priority 2017, dated 2020).

Key:
[1] = molecular target: recombinant human Mcl-1 (residues 171-327) / Bim interaction (Homo sapiens (Human), UniProt Q07820); assay: biochemical; type: binding; settings: 0.1 nM Mcl-1(171-327), 0.05 nM biotin-Bim (51-76); read-out: Mcl-1 HTRF IC50
[2] = tested on: human multiple myeloma cell line, OPM-2; assay: Cell viability assay (OPM-2 10 FBS), CellTiter-Glo; type: cell-based; settings: Homo sapiens, OPM-2, 16 h, read-out: OPM-2 10% FBS IC50 IP, OPM-2 cells, 10% FBS, 16 h incubation
Summary of the method: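 IC50 values come from 4-parameter logistic fits of luminescence signals reflecting cell viability. Treatment lasted 16 h at 37 °C in complete medium with 10% FBS, starting from 3000 cells/well.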

recombinant human Mcl-1 (residues 171-327) / Bim interaction, sequence (Q07820 171-327): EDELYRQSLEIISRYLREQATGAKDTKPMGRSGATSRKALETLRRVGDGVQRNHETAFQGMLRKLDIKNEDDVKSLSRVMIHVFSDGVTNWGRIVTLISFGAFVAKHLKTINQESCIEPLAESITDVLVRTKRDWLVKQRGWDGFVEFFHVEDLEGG

Row | SMILES | IC50 [1] [nM] | IC50 [2] [nM]
1 | COCC[C@@H]1[C@@H](C)C/C=C/[C@](CN2CCN(Cc3noc(C)n3)CC2)(OC)[C@@H]2CC[C@H]2CN2C[C@@]3(CCCc4cc(Cl)ccc43)COc3ccc(nc32)C(=O)NS1(=O)=O [Example 26, (1S,3′R,6′R,7′S,8′E,11′S,12′R)-6-chloro-7′-methoxy-12′-(2-methoxyethyl)-11′-methyl-7′-((4-((5-methyl-1,2,4-oxadiazol-3-yl)methyl)-1-piperazinyl)methyl)-3,4-dihydro-2H,15′H-spiro[naphthalene-1,22′-[20]oxa[13]thia[1,14,25]triazatetracyclo [14.7.2.0~3,6~.0~19,24~]pentacosa[8,16,18,24]tetraen]-15′-one 13′,13′-dioxide] | 0.079 | 32
2 | COCC[C@@H]1[C@@H](C)C/C=C/[C@](CN2CCN(C(C)(C)COC)CC2)(OC)[C@@H]2CC[C@H]2CN2C[C@@]3(CCCc4cc(Cl)ccc43)COc3ccc(nc32)C(=O)NS1(=O)=O [Example 27, (1S,3′R,6′R,7′S,8′E,11′S,12′R)-6-chloro-7′-methoxy-7′-((4-(2-methoxy-1,1-dimethylethyl)-1-piperazinyl)methyl)-12′-(2-methoxyethyl)-11′-methyl-3,4-dihydro-2H,15′H-spiro[naphthalene-1,22′-[20]oxa[13]thia[1,14,25]triazatetracyclo [14.7.2.0~3,6~.0~19,24~]pentacosa[8,16,18,24]tetraen]-15′-one 13′,13′-dioxide] | 0.095 | 29
3 | CC[C@@H]1CC/C=C/[C@](CN2CCN3CCOC[C@@H]3C2)(OC)[C@@H]2CC[C@H]2CN2C[C@@]3(CCCc4cc(Cl)ccc43)COc3ccc(cc32)C(=O)NS1(=O)=O [Example 28, (1S,3′R,6′R,7′S,8′E,12′R)-6-chloro-12′-ethyl-7′-((9aS)-hexahydropyrazino[2,1-c][1,4]oxazin-8(1H)-ylmethyl)-7′-methoxy-3,4-dihydro-2H,15′H-spiro[naphthalene-1,22′-[20]oxa[13]thia[1,14]diazatetracyclo [14.7.2.0~3,6~.0~19,24~]pentacosa[8,16,18,24]tetraen]-15′-one 13′,13′-dioxide] | 0.082 | 111
4 | CC[C@@H]1CC/C=C/[C@](CN2CCN3CCCC[C@@H]3C2)(OC)[C@@H]2CC[C@H]2CN2C[C@@]3(CCCc4cc(Cl)ccc43)COc3ccc(cc32)C(=O)NS1(=O)=O [Example 29, (1S,3′R,6′R,7′S,8′E,12′R)-6-chloro-12′-ethyl-7′-methoxy-7′-((9aR)-octahydro-2H-pyrido[1,2-a]pyrazin-2-ylmethyl)-3,4-dihydro-2H,15′H-spiro[naphthalene-1,22′-[20]oxa[13]thia[1,14]diazatetracyclo [14.7.2.0~3,6~.0~19,24~]pentacosa[8,16,18,24]tetraen]-15′-one 13′,13′-dioxide] | 0.249 | 186
5 | CC[C@@H]1CC/C=C/[C@@](CN2CCN3CCOC[C@@H]3C2)(OC)[C@@H]2CC[C@H]2CN2C[C@@]3(CCCc4cc(Cl)ccc43)COc3ccc(cc32)C(=O)NS1(=O)=O [Example 30, (1S,3′R,6′R,7′R,8′E,12′R)-6-chloro-12′-ethyl-7′-((9aS)-hexahydropyrazino[2,1-c][1,4]oxazin-8(1H)-ylmethyl)-7′-methoxy-3,4-dihydro-2H,15′H-spiro[naphthalene-1,22′-[20]oxa[13]thia[1,14]diazatetracyclo [14.7.2.0~3,6~.0~19,24~]pentacosa[8,16,18,24]tetraen]-15′-one 13′,13′-dioxide] | 0.11 | 166
6 | CC[C@@H]1CC/C=C/[C@](CN2CCN(C)CC2)(OC)[C@@H]2CC[C@H]2CN2C[C@@]3(CCCc4cc(Cl)ccc43)COc3ccc(cc32)C(=O)NS1(=O)=O [Example 31, (1S,3′R,6′R,7′S,8′E,12′R)-6-chloro-12′-ethyl-7′-methoxy-7′-((4-methyl-1-piperazinyl)methyl)-3,4-dihydro-2H,15′H-spiro[naphthalene-1,22′-[20]oxa[13]thia[1,14]diazatetracyclo [14.7.2.0~3,6~.0~19,24~]pentacosa[8,16,18,24]tetraen]-15′-one 13′,13′-dioxide] | 0.184 | 216
7 | CC[C@@H]1CC/C=C/[C@@](CN2CCN3CCCC[C@@H]3C2)(OC)[C@@H]2CC[C@H]2CN2C[C@@]3(CCCc4cc(Cl)ccc43)COc3ccc(cc32)C(=O)NS1(=O)=O [Example 32, (1S,3′R,6′R,7′R,8′E,12′R)-6-chloro-12′-ethyl-7′-methoxy-7′-((9aR)-octahydro-2H-pyrido[1,2-a]pyrazin-2-ylmethyl)-3,4-dihydro-2H,15′H-spiro[naphthalene-1,22′-[20]oxa[13]thia[1,14]diazatetracyclo [14.7.2.0~3,6~.0~19,24~]pentacosa[8,16,18,24]tetraen]-15′-one 13′,13′-dioxide] | 0.128 | 147
8 | CO[C@@]1(CN(C)CCN2CCOCC2)/C=C/C[C@H](C)[C@@H](C)S(=O)(=O)NC(=O)c2ccc3c(c2)N(C[C@@H]2CC[C@H]21)C[C@@]1(CCCc2cc(Cl)ccc21)CO3 [Example 35, (1S,3′R,6′R,7′S,8′E,11′S,12′R)-6-chloro-7′-methoxy-11′,12′-dimethyl-7′-((methyl(2-(4-morpholinyl)ethyl)amino)methyl)-3,4-dihydro-2H,15′H-spiro[naphthalene-1,22′-[20]oxa[13]thia[1,14]diazatetracyclo [14.7.2.0~3,6~.0~19,24~]pentacosa[8,16,18,24]tetraen]-15′-one 13′,13′-dioxide] | 0.218 | 235
9 | CO[C@]1(CN(C)CCN2CCOCC2)/C=C/C[C@H](C)[C@@H](C)S(=O)(=O)NC(=O)c2ccc3c(c2)N(C[C@@H]2CC[C@H]21)C[C@@]1(CCCc2cc(Cl)ccc21)CO3 [Example 37, (1S,3′R,6′R,7′R,8′E,11′S,12′R)-6-chloro-7′-methoxy-11′,12′-dimethyl-7′-((methyl(2-(4-morpholinyl)ethyl)amino)methyl)-3,4-dihydro-2H,15′H-spiro[naphthalene-1,22′-[20]oxa[13]thia[1,14]diazatetracyclo [14.7.2.0~3,6~.0~19,24~]pentacosa[8,16,18,24]tetraen]-15′-one 13′,13′-dioxide] | 0.615 | 643
10 | CO[C@]1(CN2CCN3CCOC[C@@H]3C2)/C=C/C[C@H](C)[C@@H](CC2CCC2)S(=O)(=O)NC(=O)c2ccc3c(c2)N(C[C@@H]2CC[C@H]21)C[C@@]1(CCCc2cc(Cl)ccc21)CO3 [Example 38] | 0.342 | 489
11 | CO[C@@]1(CN2CCN3CCOC[C@@H]3C2)/C=C/C[C@H](C)[C@@H](CC2CCC2)S(=O)(=O)NC(=O)c2ccc3c(c2)N(C[C@@H]2CC[C@H]21)C[C@@]1(CCCc2cc(Cl)ccc21)CO3 [Example 39, (1S,3′R,6′R,7′S,8′E,11′S,12′R)-6-chloro-12′-(cyclobutylmethyl)-7′-((9aS)-hexahydropyrazino[2,1-c][1,4]oxazin-8(1H)-ylmethyl)-7′-methoxy-11′-methyl-3,4-dihydro-2H,15′H-spiro[naphthalene-1,22′-[20]oxa[13]thia[1,14]diazatetracyclo [14.7.2.0~3,6~.0~19,24~]pentacosa[8,16,18,24]tetraen]-15′-one 13′,13′-dioxide] | 0.377 | 389
12 | CO[C@]1(CN2CCN3CCCC[C@@H]3C2)/C=C/C[C@H](C)[C@@H](CC2CCC2)S(=O)(=O)NC(=O)c2ccc3c(c2)N(C[C@@H]2CC[C@H]21)C[C@@]1(CCCc2cc(Cl)ccc21)CO3 [Example 40, (1S,3′R,6′R,7′R,8′E,11′S,12′R)-6-chloro-12′-(cyclobutylmethyl)-7′-methoxy-11′-methyl-7′-((9aR)-octahydro-2H-pyrido[1,2-a]pyrazin-2-ylmethyl)-3,4-dihydro-2H,15′H-spiro[naphthalene-1,22′-[20]oxa[13]thia[1,14]diazatetracyclo [14.7.2.0~3,6~.0~19,24~]pentacosa[8,16,18,24]tetraen]-15′-one 13′,13′-dioxide] | 0.444 | 571
13 | CO[C@@]1(CN2CCN3CCCC[C@@H]3C2)/C=C/C[C@H](C)[C@@H](CC2CCC2)S(=O)(=O)NC(=O)c2ccc3c(c2)N(C[C@@H]2CC[C@H]21)C[C@@]1(CCCc2cc(Cl)ccc21)CO3 [Example 41, (1S,3′R,6′R,7′S,8′E,11′S,12′R)-6-chloro-12′-(cyclobutylmethyl)-7′-methoxy-11′-methyl-7′-((9aR)-octahydro-2H-pyrido[1,2-a]pyrazin-2-ylmethyl)-3,4-dihydro-2H,15′H-spiro[naphthalene-1,22′-[20]oxa[13]thia[1,14]diazatetracyclo [14.7.2.0~3,6~.0~19,24~]pentacosa[8,16,18,24]tetraen]-15′-one 13′,13′-dioxide] | 0.642 | 810
14 | CCO[C@]1(CN2CCN3CCCC[C@@H]3C2)/C=C/CC[C@@H](CC)S(=O)(=O)NC(=O)c2ccc3c(c2)N(C[C@@H]2CC[C@H]21)C[C@@]1(CCCc2cc(Cl)ccc21)CO3 [Example 42, (1S,3′R,6′R,7′R,8′E,12′R)-6-chloro-7′-ethoxy-12′-ethyl-7′-((9aR)-octahydro-2H-pyrido[1,2-a]pyrazin-2-ylmethyl)-3,4-dihydro-2H,15′H-spiro[naphthalene-1,22′-[20]oxa[13]thia[1,14]diazatetracyclo [14.7.2.0~3,6~.0~19,24~]pentacosa[8,16,18,24]tetraen]-15′-one 13′,13′-dioxide] | 0.17 | 149
15 | CCO[C@@]1(CN2CCN3CCCC[C@@H]3C2)/C=C/CC[C@@H](CC)S(=O)(=O)NC(=O)c2ccc3c(c2)N(C[C@@H]2CC[C@H]21)C[C@@]1(CCCc2cc(Cl)ccc21)CO3 [Example 43, (1S,3′R,6′R,7′S,8′E,12′R)-6-chloro-7′-ethoxy-12′-ethyl-7′-((9aR)-octahydro-2H-pyrido[1,2-a]pyrazin-2-ylmethyl)-3,4-dihydro-2H,15′H-spiro[naphthalene-1,22′-[20]oxa[13]thia[1,14]diazatetracyclo [14.7.2.0~3,6~.0~19,24~]pentacosa[8,16,18,24]tetraen]-15′-one 13′,13′-dioxide] | 1.64 | 888
